From publication PMC7870626, “Neurotoxicity and underlying cellular changes of 21 mitochondrial respiratory chain inhibitors” (Archives of Toxicology, 2021) come the findings set out here.

Experiment [1] relates to LUHMES cells. The experiment in a line: NeuriTox test: neurite area and viability, 24 h. Format: cell-based, human. The settings on record: Homo sapiens. As to the method:
(§1) The NeuriTox test was performed as previously described (Delp et al. [2018b]; Krug et al. [2013a]; Stiegler et al. [2011]). Briefly, cells differentiated for 48 h were re-seeded into 96-well plates at a density of 100,000 cells/cm^2 in DM without cAMP and GDNF, and treated 1 h after seeding for 24 h. Subsequently, multiple endpoints were determined, e.g., neurite outgrowth (i.e., NeuriTox test), resazurin reduction, intracellular ATP content, gene expression levels from TempO-Seq analysis, and proteasomal activity. For the 120 h exposure scenario, LUHMES cells were differentiated for another 3 days after reseeding before they were treated on day 5 (d5) and d7 by a half medium exchange. Endpoints were determined on d10 of differentiation.
(§2) Image acquisition and analysis was performed as described previously (Krug et al. [2013a]; Schildknecht et al. [2013]; Stiegler et al. [2011]). In brief, cells were live-stained with 1 µg/ml Hoechst H-33342 and 1 µM calcein-AM and image acquisition was done by an automated high content imager (Cellomics, Waltham, MA, USA). Cell viability was determined as ratio of live cells (cell bodies being Calcein- and Hoechst-positive) relative to the total amount of cells (Hoechst-positive cell bodies). Neurite area was calculated by subtracting the somatic area (Hoechst-positive area plus surrounding) from the calcein-positive area.

Experiment [2] deals with LUHMES cells. In words: LUHMES 120 h exposure scenario, neurite effects. Format: cell-based, human. As to the method:
as §1, §2

Experiment [3] relates to SH-SY5Y cells. Format: cell-based, human. Particulars: 120 h exposure, up to 10 µM. On the procedure:
The cells are able to form neurites and display several dopaminergic characteristics. […] Differentiation was initiated 24 h later (on day 0, d0) by exchange to 100 µl/well differentiation medium (DMEM:F12, supplemented with 1 µM all-trans retinoic acid (RA), 1 × N2 supplement, 2 mM L-glutamine, 100 µg/ml streptomycin, and 100 U/ml penicillin). All media and supplements were obtained from Gibco (ThermoFisher) except from RA (Sigma).
On d3, 100 µl of fresh differentiation medium were added to the wells. For the 120 h exposure, this medium contained twice the final treatment concentration. On d6, 100 µl from each well were removed, and the procedure was repeated and the cells were analyzed on d8. For the 24 h exposure, cells received an addition of 100 µl pure differentiation medium on d3 and were treated with compounds as described above on d6 for 24 h before analysis. […] The cells were incubated with the stain mixture for 20 min at 37 °C, 5% CO2. After incubation, 130 µL of differentiation medium were added to all the wells to stop further staining of the cells. Images were obtained using ImageXpress® Micro (Molecular Devices). […] The mean neurite length was calculated using the Neurite Outgrowth plug-in in the MetaXpress® Software. Outgrowths were defined as cytoplasmic prolongations with a maximum width of 2 µm (3 pixels). The minimum outgrowth size needed to be logged as significant was defined as 15 µm (23 pixels).

Experiment [4] concerns LUHMES cells. The experiment in a line: Intracellular ATP content after NeuriTox exposure. Type of experiment: cell-based. Particulars: Homo sapiens; NeuriTox exposure scheme, 24 h; read-out: LUHMES 24 h EC25 ATP (converted). On the procedure:
as §1
Plates from the NeuriTox test were further used after imaging for determination of alternative endpoints. Intracellular ATP was determined as described earlier (Delp et al. [2019]). In brief, CellTiterGlo 2.0 assay mix (Promega) containing luciferase was added after imaging, and luminescence was recorded. For the determination of resazurin reduction, a 10 × resazurin stock solution was added after imaging to the medium (final resazurin concentration 2 µg/ml) (Delp et al. [2018a]). After 60 min incubation, resazurin fluorescence was recorded (ex: 530 nm, em: 590 nm). Background-corrected data was used for further analysis.

A further experiment relates to U2OS cells. The experiment in a line: cells. Type of experiment: cell-based. The settings on record: Homo sapiens, U2OS, 24 h, read-out: Cytotox EC25 U2OS. On the procedure: A cell suspension of 100,000 cells/ml was prepared in assay medium, and white 384-well plates were filled with 30 µl/well cell suspension. Twenty-four hours after seeding, a dilution series of test compound, as well as positive and negative controls, were added to the cells. After 24 h exposure, the medium was removed, and 10 µl of Triton X-100 lysis buffer was added to each well. The luminescent signal was determined in a luminometer by injecting BDS Illuminate Mix and measuring the light emission. The Cytotox CALUX cell line constitutively expresses a high level of luciferase protein; the light emission is therefore proportional to the cell number of live cells, and its decrease can be used as measure of cytotoxicity. The light emission generated by cells exposed to vehicle control was set to 100%, and the luminescence of cells exposed to the positive control toxicant tributyltin acetate [100 µM] was set to 0%. The light output of the cells exposed to different concentrations of test compounds was scaled accordingly.

For experiment [5], the system named is SH-SY5Y cells. In words: Mitochondrial membrane potential (rhodamine 123), KE2 assay. Format: cell-based, human. Particulars: Homo sapiens, SH-SY5Y, 24 h, read-out: pEC25 MMP (concentration where MMP was reduced by 25%). On the procedure: Cells were plated at a cell density of 29,500 cells/cm^2 and handled as described above for the neurite SH-SY5Y degeneration. On d6 of differentiation, 50% of the medium was replaced by differentiation medium containing 2 µM Rhodamine 123 (ThermoFisher). After 45 min of preloading at 37 °C with 5% CO2 in darkness, the Rhodamine 123 solution was completely removed and cells were carefully washed once with 200 µl DMEM:F12. Subsequently, 50 µl differentiation medium per well were added followed by the addition of 50 µl/well of test compounds in medium. After 24 h of exposure to the test compounds, the nuclei were stained for 30 min with 20 µL of a solution containing 20 µM Hoechst 33342, and the images were then acquired with a 10 × objective lens using the ImageXpress® Micro (Molecular Devices) high content microplate imager. Nuclei were evaluated in the DAPI channel (excitation 377 ± 50 nm, emission 447 ± 60 nm), whereas Rhodamine 123 fluorescence was detected in the FITC channel (excitation 475 ± 34 nm, emission 536 ± 40 nm). Analysis of the Hoechst 33,342 and Rhodamine 123 fluorescence was performed using the MetaXpress® Software (Molecular Devices) with the Transfluor HT plug-in and the parameters nuclei (for Hoechst-33342) and integrated granule intensity (for Rhodamine 123). Mitochondrial membrane potential (MMP) was quantified as the total fluorescence intensity of Rhodamine 123 in relation to the number of Hoechst-stained nuclei.

Each structure is given as a SMILES string. “Also recorded” adds a separate entry of the source.

In the case of `Cc1nn(C)c(Oc2ccccc2)c1C=NOCc1ccc(C(=O)OC(C)(C)C)cc1` [Fenpyroximate], the EC25 was 15.8 µM in the experiment on LUHMES cells [1] (NeuriTox exposure scheme, 24 h, read-out: LUHMES 24 h EC25 NA (neurite area) (converted)); 39.8 µM in the experiment on LUHMES cells [1] (NeuriTox exposure scheme, 24 h, read-out: LUHMES 24 h EC25 V (viability) (converted)); 15.8 µM in the experiment with LUHMES cells [1] (NeuriTox test, neurite outgrowth impairment, LUHMES 24 h, read-out: EC25 KE4 (AO) Neurite toxicity (converted)); 12.6 µM in the experiment with LUHMES cells [4]; over 50.1 µM in the experiment with U2OS cells; 0.794 µM in the experiment with SH-SY5Y cells [5]. In the experiment on LUHMES cells [2], the “Increase in sensitivity of neurite EC25, 120 h versus 24 h exposure” value is listed as “five-to-eightfold”. Besides, in the experiment with SH-SY5Y cells [3], the “Neurite degeneration (in words)” value is listed as “degeneration of neurites; also recorded: increased neurite degeneration”. For the same compound, the Reduction in viability in the experiment on SH-SY5Y cells [3] is listed as over 25%.
